The values that follow come from patent US8921571B2, “Pyrrolysine analogs” (The Ohio State University, priority 2009, dated 2014).

For test [1], the system named is recombinant protein. In words: incorporation into a recombinant protein. Type of test: cell-based.
Test [2] has as its system UAG stop codon readthrough of mCherry (Lys55) with PylT/PylS genes from Methanosarcina mazei. The test can be described thus: modified mCherry fluorescence protein assay for stop codon readthrough (Example 2). Type of test: cell-based, E. coli strain BL21(DE3). To be noted: for mCherry production: Terrific Broth. On the procedure: The site-specific incorporation efficiencies of these analogs were measured with a modified fluorescence protein assay using a fluorescent protein as a reporting gene to monitor stop codon readthrough. This approach was made compatible with large scale measurements by 1) using mCherry instead of GFP to reduce the fluorescence background introduced by growth medium, 2) growing the host cells in 24-well plates to facilitate handling of multiple samples and minimize deviation between samples, and 3) measuring the fluorescence intensity of the cell culture in the plates to save the labor of electrophoresis and western blotting.
In this study, the Lys55 codon of mCherry was site-specifically mutated to UAG and inserted into the plasmid pPylST harbouring the pyrrolysine tRNA (PylT) and synthetase (PylS) genes from Methanosarcina mazei. E. coli strain BL21(DE3) transformed with this plasmid was grown in the Terrific Broth medium supplied with 2 mM pyrrolysine analog to be examined. […] These differences are seen in FIG. 3, where the results have been normalized against analog 3. Similar results were observed when the supplied analog concentration varied from 0.5 mM to 20 mM.
As analogs 4-6 were prepared and screened as ˜1:1 mixtures of diastereomers, we carried out further readthrough experiments with isomerically pure samples of 6 prepared from commercially available (R)- and (S)-propargylglycines. The readthrough efficiencies of L-6, D-6 and the enantiomer mixture were tested at various concentrations. […] This is seen in FIG. 4. […] One explanation is that the less efficient incorporable isomer L-6 is a competitive inhibitor of D-6.
The effect of the growth medium pH on the readthrough efficiency of D-6 was investigated using the modified mCherry assay. […] When 2 mM D-6 was used as substrate, the production of full-length mCherry increased as the pH of the growth medium increased. The total amount of produced mCherry peaked at pH 8.5 and dropped a little at pH 9.0 due to a lower cell density.

Test [3] has as its system UAG codon readthrough of mCherry (Lys55 codon mutated to UAG) with PylT/PylS. The test can be described thus: mCherry UAG codon readthrough assay (Example 1). Type of test: cell-based, E. coli strain BL21(DE3). Conditions: for readthrough of the UAG codon: Terrific Broth medium, varying concentrations. On the procedure:
In order to evaluate the UAG codon readthrough efficiency for the two diastereomers, the brightly emitting red fluorescent protein, mCherry, was employed as a reporter. Briefly, the Lys55 codon of this protein was site-specifically mutated to UAG and inserted into the plasmid pPylST harbouring the pyrrolysine tRNA (PylT) and synthetase (PylS) genes. E. coli strain BL21(DE3) transformed with this plasmid was grown in the Terrific Broth medium supplied with either the (S,S)-isomer or (R,S)-isomer at varying concentrations. […] This is seen in the graph of FIG. 1, where the relative fluorescence of the (S,S)-isomer was higher at all concentrations.

The mark [4] stands for this setting: 2 mM analog, normalized against analog 3, ~1:1 mixture of diastereomers.

Structures can show the parent of a compound that is named as a salt. Where two headings read alike, the source gives them in different places.

As for `CC1(CC(=O)NCCCC[C@H](N)C(=O)O)N=N1` [Formula (11), N^6-(2-(3-Methyl-3H-diazirin-3-yl)acetyl)lysine trifluoroacetate], the “incorporation into a recombinant protein” value in test [1] is on record as “incorporated into a recombinant protein”. As to `C#CCC(N)C(=O)NCCCC[C@H](N)C(=O)O` (stereo partly drawn) [Formula 6], the “readthrough efficiency (in words)” value in test [2] is “best substrate”. The “readthrough efficiency, more efficient than analog 3” value in test [2] (setting [4]) worked out at 69%. With `C#CCC(N)C(=O)NCCCC[C@H](N)C(=O)O` (stereo partly drawn) [Formula (6)], the “readthrough efficiency (in words)” value in test [2] (listed as enantiomer mixture) is listed as “moderate efficiency”. In the case of `C#CCCC(=O)NCCCC[C@H](N)C(=O)O` [Formula 7], the mCherry production result in test [2] (2 mM analog) is reported as “no detectable mCherry production”. On to `N[C@@H](CCCCNC(=O)[C@@H](N)CS)C(=O)O` [Formula (2)], for which the “readthrough of the UAG codon” value in test [3] is listed as “enabled readthrough of the UAG codon”. `C#CC[C@@H](N)C(=O)NCCCC[C@H](N)C(=O)O` [Formula D-6]: the “readthrough efficiency (in words)” value in test [2] is listed as “highly efficient”. For the same compound, the “readthrough efficiency, fold more efficient than L-6” value in test [2] (isomerically pure samples, various concentrations, FIG. 4) came out at 35 fold. In the case of `[N-]=[N+]=NCC(=O)NCCCC[C@H](N)C(=O)O` [Formula (10), N^6-(Azidoacetyl)lysine trifluoroacetate], the “readthrough efficiency, fold less efficient than analog 3” value in test [2] (setting [4]) is 30 fold. With `N[C@H](CS)C(=O)NCCCC[C@H](N)C(=O)O` [Formula (1)], the “readthrough of the UAG codon” value in test [3] was “enabled readthrough of the UAG codon”. The “readthrough efficiency, comparison of the two isomers” value in test [3] (versus (R,S)-isomer, FIG. 1) was “much better substrate”. On to `C#CCC(O)C(=O)NCCCC[C@H](N)C(=O)O` (stereo partly drawn) [Formula 5], for which the mCherry production entry in test [2] (2 mM analog) is recorded as “no detectable mCherry production”.
